According to patent US12329822B2, “Antimicrobial tailored chitosan” (UNIVERSITÉ DE GENÈVE, priority 2019, dated 2025):

Tests used:
P. aeruginosa = details: native peptide; cited from earlier work
S. aureus = details: native peptide; cited from earlier work
M. tuberculosis = details: native peptide; cited from earlier work
C. albicans = details: native peptide; cited from earlier work
E. coli = details: native peptide; cited from earlier work
P. aeruginosa (PA01) = test: Transmission electron microscopy (TEM) on P. aeruginosa; format: cell-based, Pseudomonas aeruginosa
Protocol: Method 1 for Example 2: Transmission Electron Microscopy (TEM) with A3-S—C1 on P. aeruginosa
Pseudomonas aeruginosa PAO1 in the exponential phase were washed with phosphate buffered saline (PBS) and treated with 5 μg/mL Polymyxin B, 40 μg/mL G3KL and 40 or 64 μg/mL […] in M63 minimal medium. Each time, 1 ml of the bacteria were centrifuged after 15, 30 and 60 min at 12′000 rpm for 3 min and fixed overnight with 2.5% glutaraldehyde (Agar Scientific, Stansted, Essex, UK) in 0.15 M HEPES (Fluka, Buchs, Switzerland) with an osmolarity of 670 mOsm and adjusted to a pH of 7.35. The next day, PAO1 were washed with 0.15 M HEPES three times for 5 min, post fixed with 1% OsO4 (SPI Supplies, West Chester, USA) in 0.1 M Na-cacodylate-buffer (Merck, Darmstadt, Germany) at 4° C. for 1 h. Thereafter, bacteria were washed in 0.1 M Na-cacodylate-buffer three times for 5 min and dehydrated in 70, 80, and 96% ethanol (Alcosuisse, Switzerland) for 15 min each at room temperature. Subsequently, they were immersed in 100% ethanol (Merck, Darmstadt, Germany) three times for 10 min, in acetone (Merck, Darmstadt, Germany) two times for 10 min, and finally in acetone-Epon (1:1) overnight at room temperature. The next day, bacteria were embedded in Epon (Fluka, Buchs, Switzerland) and hardened at 60° C. for 5 days. […]

Row | Substance | MIC (P. aeruginosa) | MIC (S. aureus) | MIC (M. tuberculosis) | MIC (C. albicans) | MIC (E. coli) | Effect on bacterial membranes (TEM imaging) (P. aeruginosa (PA01)) | Effect on P. aeruginosa (PA01) (P. aeruginosa (PA01); TEM, concentration 5 μg/mL)
1 | IDR-1018: linear AMP VRLIVAVRIWRR (SEQ ID NO: 9) (AMP) | 19 µg/mL | 5 µg/mL | 16 µg/mL |  |  |  | 
2 | OP-145: linear AMP IGKEFKRIVERIKRFLRELVRPLR (SEQ ID NO: 12) (AMP) | 9.2 to 18.3 µg/mL |  |  | 18.3 µg/mL | 6.1 to 9.2 µg/mL |  | 
3 | Polymyxin B |  |  |  |  |  | attacks only the outer membrane of the bacteria | Attack on the outer membrane
